In assay [1] the target is Tyrosine-protein kinase JAK1 (Homo sapiens, UniProt P23458). Put plainly: (§1) JAK Caliper Enzyme Assay at 1 mM ATP: Compounds were added to a 384-well plate. Reaction mixtures contained 10 mM HEPES, pH 7.4, 10 mM MgCl2, 0.01% BSA, 0.0005% Tween 20, 1 mM ATP and 1 μM peptide substrate. The JAK1 and TYK2 assays contained 1 μM of the IRStide peptide (5FAM-[…]) and the JAK2 and JAK3 assays contained 1 μM of the JAKtide peptide (FITC-[…]). The assays were initiated by the addition of 20 nM JAK1, 1 nM JAK2, 1 nM JAK or 1 nM TYK2 enzyme and were incubated at room temperature for three hours for JAK1, 60 minutes for JAK2, 75 minutes for JAK3 or 135 minutes for TYK2. Enzyme concentrations and incubation times were optimized for each new enzyme preps and were modified slightly over time to ensure 20% to 30% phosphorylation. The assays were stopped with 15 μL of 180 mM HEPES, pH 7.4, 20 mM EDTA, and 0.2% Coating Reagent 3. The assay plates were placed on a Caliper Life Science LC3000 instrument, and each well was sampled using appropriate separation conditions to measure the unphosphorylated and phosphorylated peptide.
Sequence of Tyrosine-protein kinase JAK1 (P23458 whole entry): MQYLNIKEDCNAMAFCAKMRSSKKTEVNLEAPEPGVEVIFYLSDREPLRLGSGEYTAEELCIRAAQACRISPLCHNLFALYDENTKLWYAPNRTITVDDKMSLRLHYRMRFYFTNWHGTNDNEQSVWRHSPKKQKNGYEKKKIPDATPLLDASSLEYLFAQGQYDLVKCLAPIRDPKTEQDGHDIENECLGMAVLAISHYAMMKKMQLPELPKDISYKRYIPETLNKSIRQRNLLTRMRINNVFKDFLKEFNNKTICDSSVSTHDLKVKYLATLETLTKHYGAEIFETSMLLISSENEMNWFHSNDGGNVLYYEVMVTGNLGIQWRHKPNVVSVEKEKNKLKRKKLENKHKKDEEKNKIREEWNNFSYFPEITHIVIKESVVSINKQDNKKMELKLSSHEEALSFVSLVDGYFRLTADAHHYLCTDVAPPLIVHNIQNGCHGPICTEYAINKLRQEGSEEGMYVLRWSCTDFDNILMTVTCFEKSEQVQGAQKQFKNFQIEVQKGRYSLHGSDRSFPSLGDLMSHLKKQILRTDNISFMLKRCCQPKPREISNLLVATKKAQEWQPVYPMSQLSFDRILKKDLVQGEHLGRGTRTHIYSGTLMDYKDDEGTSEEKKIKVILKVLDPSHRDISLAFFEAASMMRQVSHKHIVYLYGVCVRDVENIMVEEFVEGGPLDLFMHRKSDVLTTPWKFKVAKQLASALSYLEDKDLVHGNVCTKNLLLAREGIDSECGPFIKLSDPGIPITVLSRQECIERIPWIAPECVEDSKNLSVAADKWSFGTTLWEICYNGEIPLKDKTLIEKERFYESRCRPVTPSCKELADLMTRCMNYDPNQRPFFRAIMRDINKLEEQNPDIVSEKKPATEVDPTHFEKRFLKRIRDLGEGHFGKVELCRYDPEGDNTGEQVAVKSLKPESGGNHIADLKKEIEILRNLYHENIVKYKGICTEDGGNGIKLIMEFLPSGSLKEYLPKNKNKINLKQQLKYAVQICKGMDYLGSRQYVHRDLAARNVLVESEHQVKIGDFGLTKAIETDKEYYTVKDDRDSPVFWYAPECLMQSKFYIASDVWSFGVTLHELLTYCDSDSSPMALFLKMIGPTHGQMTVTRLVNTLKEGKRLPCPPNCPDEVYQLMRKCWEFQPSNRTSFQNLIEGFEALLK

Assay [2] deals with T1, Tyrosine-protein kinase JAK3 (Homo sapiens, UniProt P52333).
T1 sequence (P52333 whole entry): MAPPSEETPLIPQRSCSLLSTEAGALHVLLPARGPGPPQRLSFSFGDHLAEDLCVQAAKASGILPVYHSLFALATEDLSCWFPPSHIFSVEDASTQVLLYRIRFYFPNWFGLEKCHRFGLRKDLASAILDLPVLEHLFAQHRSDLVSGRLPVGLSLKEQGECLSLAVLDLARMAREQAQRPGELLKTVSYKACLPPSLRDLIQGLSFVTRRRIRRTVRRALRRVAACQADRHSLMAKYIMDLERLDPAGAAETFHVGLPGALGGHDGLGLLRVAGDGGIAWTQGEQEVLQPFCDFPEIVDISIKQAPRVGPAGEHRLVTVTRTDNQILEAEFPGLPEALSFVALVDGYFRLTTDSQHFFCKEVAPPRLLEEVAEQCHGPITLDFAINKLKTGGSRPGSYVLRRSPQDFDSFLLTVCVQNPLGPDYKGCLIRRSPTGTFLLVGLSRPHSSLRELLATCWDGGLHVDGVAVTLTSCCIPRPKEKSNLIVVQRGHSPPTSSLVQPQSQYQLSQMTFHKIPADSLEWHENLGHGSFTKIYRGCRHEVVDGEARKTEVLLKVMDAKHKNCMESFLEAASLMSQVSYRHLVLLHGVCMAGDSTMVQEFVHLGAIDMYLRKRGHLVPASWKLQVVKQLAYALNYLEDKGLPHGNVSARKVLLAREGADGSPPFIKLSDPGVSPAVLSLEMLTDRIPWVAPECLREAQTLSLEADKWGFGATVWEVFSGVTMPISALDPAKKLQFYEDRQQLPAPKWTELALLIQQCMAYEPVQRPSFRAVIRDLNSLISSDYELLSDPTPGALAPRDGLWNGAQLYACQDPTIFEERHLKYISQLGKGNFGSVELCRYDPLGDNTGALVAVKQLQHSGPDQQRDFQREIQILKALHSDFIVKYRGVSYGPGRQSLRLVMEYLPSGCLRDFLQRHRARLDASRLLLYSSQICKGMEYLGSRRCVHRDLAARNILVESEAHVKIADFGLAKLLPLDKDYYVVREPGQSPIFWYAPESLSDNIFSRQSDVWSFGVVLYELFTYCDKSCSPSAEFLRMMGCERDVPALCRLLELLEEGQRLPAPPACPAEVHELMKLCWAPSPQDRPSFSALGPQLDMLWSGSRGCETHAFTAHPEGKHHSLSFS
The description is as §1.

Assay [3] addresses Non-receptor tyrosine-protein kinase TYK2 (Homo sapiens, UniProt P29597). The assay is described as §1.
Assay [4] deals with Tyrosine-protein kinase JAK2 (Homo sapiens, UniProt O60674). In words: Reaction mixtures contained 10 mM HEPES, pH 7.4, 10 mM MgCl2, 0.01% BSA, 0.0005% Tween 20, 1 mM ATP and 1 μM peptide substrate. […] Enzyme concentrations and incubation times were optimized for each new enzyme preps and were modified slightly over time to ensure 20% to 30% phosphorylation. The assays were stopped with 15 μL of 180 mM HEPES, pH 7.4, 20 mM EDTA, and 0.2% Coating Reagent 3. The assay plates were placed on a Caliper Life Science LC3000 instrument, and each well was sampled using appropriate separation conditions to measure the unphosphorylated and phosphorylated peptide.
Sequence of Tyrosine-protein kinase JAK2 (O60674 whole entry): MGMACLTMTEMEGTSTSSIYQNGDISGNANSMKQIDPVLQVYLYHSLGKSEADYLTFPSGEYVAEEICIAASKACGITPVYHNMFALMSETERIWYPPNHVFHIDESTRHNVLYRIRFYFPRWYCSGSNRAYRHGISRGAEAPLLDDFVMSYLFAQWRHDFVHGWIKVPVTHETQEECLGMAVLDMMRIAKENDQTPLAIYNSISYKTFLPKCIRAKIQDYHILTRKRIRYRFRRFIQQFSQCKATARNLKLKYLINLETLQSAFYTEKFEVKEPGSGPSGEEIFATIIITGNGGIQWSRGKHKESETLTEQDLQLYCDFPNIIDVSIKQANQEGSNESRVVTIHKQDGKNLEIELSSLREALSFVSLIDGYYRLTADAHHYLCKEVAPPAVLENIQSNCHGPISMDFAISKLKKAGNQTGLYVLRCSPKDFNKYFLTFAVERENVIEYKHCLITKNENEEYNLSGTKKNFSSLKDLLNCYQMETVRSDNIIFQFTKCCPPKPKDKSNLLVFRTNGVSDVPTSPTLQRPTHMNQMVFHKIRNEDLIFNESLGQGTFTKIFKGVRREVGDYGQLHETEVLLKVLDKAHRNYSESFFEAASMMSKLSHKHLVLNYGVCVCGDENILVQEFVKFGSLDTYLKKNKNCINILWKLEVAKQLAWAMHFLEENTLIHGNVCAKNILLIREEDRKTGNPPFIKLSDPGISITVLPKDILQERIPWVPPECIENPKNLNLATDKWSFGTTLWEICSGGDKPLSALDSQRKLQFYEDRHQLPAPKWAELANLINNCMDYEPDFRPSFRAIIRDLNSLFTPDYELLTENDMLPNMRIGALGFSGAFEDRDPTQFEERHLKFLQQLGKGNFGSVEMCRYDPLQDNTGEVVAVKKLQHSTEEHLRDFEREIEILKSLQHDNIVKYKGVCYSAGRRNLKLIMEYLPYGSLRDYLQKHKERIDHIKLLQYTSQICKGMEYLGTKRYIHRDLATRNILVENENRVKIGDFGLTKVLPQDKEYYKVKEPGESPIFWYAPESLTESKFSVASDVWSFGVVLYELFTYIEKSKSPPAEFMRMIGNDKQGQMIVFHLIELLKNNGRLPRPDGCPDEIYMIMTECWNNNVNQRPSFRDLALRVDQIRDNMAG

SMILES strings stand for the structures.

Sequence of Non-receptor tyrosine-protein kinase TYK2 (P29597 whole entry): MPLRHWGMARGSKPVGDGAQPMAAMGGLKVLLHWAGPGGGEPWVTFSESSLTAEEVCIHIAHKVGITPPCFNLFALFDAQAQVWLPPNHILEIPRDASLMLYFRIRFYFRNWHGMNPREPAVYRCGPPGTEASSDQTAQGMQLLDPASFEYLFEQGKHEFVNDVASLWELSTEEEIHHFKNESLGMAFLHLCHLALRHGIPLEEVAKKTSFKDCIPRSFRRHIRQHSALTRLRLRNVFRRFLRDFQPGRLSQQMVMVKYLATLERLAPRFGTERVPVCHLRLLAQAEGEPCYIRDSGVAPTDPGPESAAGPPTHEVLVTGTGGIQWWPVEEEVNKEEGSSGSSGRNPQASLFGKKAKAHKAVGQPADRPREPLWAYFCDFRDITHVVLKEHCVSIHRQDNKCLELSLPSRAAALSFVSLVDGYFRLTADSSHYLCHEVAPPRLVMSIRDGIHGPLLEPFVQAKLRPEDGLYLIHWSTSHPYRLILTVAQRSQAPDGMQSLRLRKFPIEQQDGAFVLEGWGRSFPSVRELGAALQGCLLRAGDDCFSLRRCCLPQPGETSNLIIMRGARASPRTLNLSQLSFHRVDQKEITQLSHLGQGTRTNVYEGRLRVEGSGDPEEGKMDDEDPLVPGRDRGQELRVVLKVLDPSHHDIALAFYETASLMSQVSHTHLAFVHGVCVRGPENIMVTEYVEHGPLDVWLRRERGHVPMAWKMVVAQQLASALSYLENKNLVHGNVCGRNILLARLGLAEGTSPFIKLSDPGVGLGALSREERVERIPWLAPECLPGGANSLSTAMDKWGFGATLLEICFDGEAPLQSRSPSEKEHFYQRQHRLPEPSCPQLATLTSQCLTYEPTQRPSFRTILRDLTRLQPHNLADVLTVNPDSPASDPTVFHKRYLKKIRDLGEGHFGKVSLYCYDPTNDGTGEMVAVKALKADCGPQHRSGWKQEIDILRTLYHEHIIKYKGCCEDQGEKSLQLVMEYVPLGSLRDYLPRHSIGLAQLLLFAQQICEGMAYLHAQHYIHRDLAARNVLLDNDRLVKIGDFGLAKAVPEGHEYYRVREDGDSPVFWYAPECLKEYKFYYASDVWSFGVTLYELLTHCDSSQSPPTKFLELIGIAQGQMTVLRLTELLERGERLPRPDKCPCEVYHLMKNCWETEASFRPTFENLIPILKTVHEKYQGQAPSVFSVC

By IC50 is commonly meant the midpoint of a concentration-inhibition curve. Consider `Cn1cc(-c2cn3nccc3c(-c3cnn([C@]4(CC#N)C[C@@H](CC#N)C4)c3)n2)cn1`, for which the half-maximal inhibitory concentration (IC50) was 764 nM in assay [1], more than 10000 nM in assay [2], 24 nM in assay [3] and 159 nM in assay [4].

The values are drawn from ChEMBL document CHEMBL5725962, “Pyrazolo[1,5-A]PYRAZIN-4-YL derivatives” (2018).
